{
  "source": "patent US12691151B2",
  "about": "“Methods and compositions for improving oncolytic virus infection for nonpermissive cancers” (Arizona Board of Regents on behalf of Arizona State …, priority 2019, dated 2026)",
  "system": "HT29 cells",
  "type": "cell-based, human",
  "note": "Entries after “also recorded” stand apart in the source; their conditions may differ.",
  "data": [
    {"smiles": "CCC(=C/[C@H](C)C/C=C/C(C)=C/[C@@H](C)C(=O)[C@@H](C)[C@H](O)[C@@H](C)C/C(C)=C/C(=O)O)/C=C/[C@@H]1OC(=O)C=C[C@@H]1C", "note": "[Leptomycin B]", "values": [
      {"measurement": "cell killing ability of MYXV", "value": "further enhanced the cell killing ability of MYXV"},
      {"measurement": "cell viability (ATP), Leptomycin B pretreatment plus MYXV", "value": "further reduced the viability; also recorded: reduced cell viability"},
      {"measurement": "cell viability (ATP)", "setting": "64 h", "value": "sensitive to Leptomycin B treatment alone"}
    ]}
  ]
}
